Test results: patent US9975895B2, “Substituted pyrimidinium compounds and derivatives for combating animal pests” (BASF SE, priority 2013, dated 2018)

Assays:
Assay type in all cases: in vivo
[1] = tested on: Rice green leafhopper (Nephotettix virescens); assay: Rice green leafhopper, sprayed potted rice seedlings; conditions: adults on sprayed rice seedlings, after 72 hours, read-out: mortality in comparison with untreated controls
Method: Rice seedlings were cleaned and washed 24 hours before spraying. The active compounds were formulated in 50:50 acetone:water (vol:vol), and 0.1% vol/vol surfactant (EL 620) was added. Potted rice seedlings were sprayed with 5 ml test solution, air dried, placed in cages and inoculated with 10 adults. Treated rice plants were kept at about 28-29° C. and relative humidity of about 50-60%. Percent mortality was recorded after 72 hours.

[2] = tested on: Green peach aphid (Myzus persicae); assay: Green peach aphid control through systemic means, artificial diet under membrane; conditions: 72 h, adult aphids on treated diet, 3 days, read-out: mortality in comparison with untreated controls
Description: For evaluating control of green peach aphid (Myzus persicae) through systemic means the test unit consisted of 96-well-microtiter plates containing liquid artificial diet under an artificial membrane.
The compounds were formulated using a solution containing 75% v/v water and 25% v/v DMSO. Different concentrations of formulated compounds were pipetted into the aphid diet, using a custom built pipetter, at two replications.
After application, 5-8 adult aphids were placed on the artificial membrane inside the microtiter plate wells. The aphids were then allowed to suck on the treated aphid diet and incubated at about 23±1° C. and about 50±5% relative humidity for 3 days. Aphid mortality and fecundity was then visually assessed.

[3] = tested on: Rice brown plant hopper (Nilaparvata lugens); assay: Rice brown plant hopper, sprayed potted rice seedlings; conditions: adults on sprayed rice seedlings, after 72 hours, read-out: mortality in comparison with untreated controls
Method: Rice seedlings were cleaned and washed 24 hours before spraying. The active compounds were formulated in 50:50 acetone:water (vol:vol) and 0.1% vol/vol surfactant (EL 620) was added. Potted rice seedlings were sprayed with 5 ml test solution, air dried, placed in cages and inoculated with 10 adults. Treated rice plants were kept at about 28-29° C. and relative humidity of about 50-60%. Percent mortality was recorded after 72 hours.

[4] = tested on: Vetch aphid (Megoura viciae); assay: Vetch aphid control through contact or systemic means, broad bean leaf disks; conditions: foliar, 120 h, adult aphids on treated leaf disks, 5 days, read-out: mortality in comparison with untreated controls
Method: For evaluating control of vetch aphid (Megoura viciae) through contact or systemic means the test unit consisted of 24-well-microtiter plates containing broad bean leaf disks.
The compounds were formulated using a solution containing 75% v/v water and 25% v/v DMSO. Different concentrations of formulated compounds were sprayed onto the leaf disks at 2.5 μl, using a custom built micro atomizer, at two replications.
After application, the leaf disks were air-dried and 5-8 adult aphids placed on the leaf disks inside the microtiter plate wells. The aphids were then allowed to suck on the treated leaf disks and incubated at about 23±1° C. and about 50±5% relative humidity for 5 days. Aphid mortality and fecundity was then visually assessed.

[5] = tested on: Orchid thrips (Dichromothrips corbetti); assay: Orchid thrips floral-immersion bioassay; conditions: adult thrips, 72 hours after treatment, read-out: mortality in comparison with untreated controls
Method: Dichromothrips corbetti adults used for bioassay were obtained from a colony maintained continuously under laboratory conditions. For testing purposes, the test compound is diluted in a 1:1 mixture of acetone:water (vol:vol), plus 0.01% vol/vol Alkamuls® EL 620 surfactant. Thrips potency of each compound was evaluated by using a floral-immersion technique. Plastic petri dishes were used as test arenas. All petals of individual, intact orchid flowers were dipped into treatment solution and allowed to dry. Treated flowers were placed into individual petri dishes along with about 20 adult thrips. The petri dishes were then covered with lids. All test arenas were held under continuous light and a temperature of about 28° C. for duration of the assay. After 3 days, the numbers of live thrips were counted on each flower, and along inner walls of each petri dish. The percent mortality was recorded 72 hours after treatment.

[6] = tested on: Boll weevil (Anthonomus grandis); assay: Boll weevil control, 96-well microtiter plates with insect diet and eggs; conditions: 120 h, egg and larval mortality after 5 days, read-out: mortality in comparison with untreated controls
Method: For evaluating control of boll weevil (Anthonomus grandis) the test unit consisted of 96-well-microtiter plates containing an insect diet and 5-10 A. grandis eggs.
The compounds were formulated using a solution containing 75% v/v water and 25% v/v DMSO. Different concentrations of formulated compounds were sprayed onto the insect diet at 5 μl, using a custom built micro atomizer, at two replications.
After application, microtiter plates were incubated at about 25±1° C. and about 75±5% relative humidity for 5 days. Egg and larval mortality was then visually assessed.

[7] = tested on: Tobacco budworm (Heliothis virescens); assay: Tobacco budworm control, 96-well microtiter plates with insect diet and eggs; conditions: 120 h, egg and larval mortality after 5 days, read-out: mortality in comparison with untreated controls
Method: For evaluating control of tobacco budworm (Heliothis virescens) the test unit consisted of 96-well-microtiter plates containing an insect diet and 15-25 H. virescens eggs.
The compounds were formulated using a solution containing 75% v/v water and 25% v/v DMSO. Different concentrations of formulated compounds were sprayed onto the insect diet at 10 μl, using a custom built micro atomizer, at two replications.
After application, microtiter plates were incubated at about 28±1° C. and about 80±5% relative humidity for 5 days. Egg and larval mortality was then visually assessed.

O=c1c(-c2ccccc2)c([O-])[n+]2c3n1CCC3CCC2c1cnc(Cl)s1 (stereo not drawn) [C-2]
> 75%: mortality at 500 ppm [1] | mortality at 2500 ppm [2] | mortality at 500 ppm [3] | mortality at 2500 ppm [4] | mortality at 500 ppm [5]

O=c1c(-c2ccccc2)c([O-])[n+]2c3n1CCCC3CC2c1cnc(Cl)s1 (stereo not drawn) [C-3]
> 75%: mortality at 500 ppm [1] | mortality at 2500 ppm [2] | mortality at 500 ppm [3] | mortality at 2500 ppm [4] | mortality at 500 ppm [5]

O=c1c(-c2ccccc2)c([O-])[n+]2c3n1CCN3CCC2c1cnc(Cl)s1 (stereo not drawn) [C-4]
> 75%: mortality at 500 ppm [1] | mortality at 2500 ppm [2] | mortality at 500 ppm [5]

O=c1c(-c2ccccc2)c([O-])[n+]2c3n1CCCC3CCC2c1cnc(Cl)s1 (stereo not drawn) [C-6]
> 75%: mortality at 500 ppm [1] | mortality at 2500 ppm [2] | mortality at 500 ppm [3] | mortality at 2500 ppm [4] | mortality at 500 ppm [5]

O=c1c(-c2ccccc2)c([O-])[n+]2c3n1CCCN3CCC2c1cnc(Cl)s1 (stereo not drawn) [C-7]
> 75%: mortality at 500 ppm [1] | mortality at 2500 ppm [6] | mortality at 2500 ppm [2] | mortality at 500 ppm [3] | mortality at 2500 ppm [4] | mortality at 500 ppm [5]

O=c1c(-c2ccccc2)c([O-])[n+]2c3c(cccn13)CCC2c1cnc(Cl)s1 (stereo not drawn) [C-8]
> 75%: mortality at 500 ppm [1] | mortality at 2500 ppm [6] | mortality at 2500 ppm [2] | mortality at 500 ppm [3] | mortality at 2500 ppm [4] | mortality at 2500 ppm [7] | mortality at 500 ppm [5]

O=c1c(-c2cccc(C(F)(F)F)c2)c([O-])n2c3c(ccc[n+]13)CCC2c1cnc(Cl)s1 (stereo not drawn) [C-9]
> 75%: mortality at 2500 ppm [2] | mortality at 2500 ppm [4] | mortality at 2500 ppm [7]

O=c1c(-c2cc(Cl)cc(Cl)c2)c([O-])n2c3c(ccc[n+]13)CCC2c1cnc(Cl)s1 (stereo not drawn) [C-10]
> 75%: mortality at 2500 ppm [4] | mortality at 2500 ppm [7]

COc1ccc(-c2c([O-])n3c4c(ccc[n+]4c2=O)CCC3c2cnc(Cl)s2)cc1 (stereo not drawn) [C-11]
> 75%: mortality at 2500 ppm [2] | mortality at 2500 ppm [4] | mortality at 2500 ppm [7]
